Drawing on ChEMBL document CHEMBL1141094, “Bisphosphonate inhibition of the exopolyphosphatase activity of the Trypanosoma brucei soluble vacuolar pyrophosphatase” (J Med Chem, 2005), this text covers EC50 and TI for 34 compounds.

SMILES strings stand for the structures.

One test concerns KB. Briefly: Dose to inhibit the growth of human KB carcinoma cell line. The following applies: read-out: ED50 (the source's name). Format: functional.
For test [1], the target named is T1, Vacuolar-type proton translocating pyrophosphatase 1 (Trypanosoma brucei) (UniProt Q8MTZ4).
T1 sequence (whole entry): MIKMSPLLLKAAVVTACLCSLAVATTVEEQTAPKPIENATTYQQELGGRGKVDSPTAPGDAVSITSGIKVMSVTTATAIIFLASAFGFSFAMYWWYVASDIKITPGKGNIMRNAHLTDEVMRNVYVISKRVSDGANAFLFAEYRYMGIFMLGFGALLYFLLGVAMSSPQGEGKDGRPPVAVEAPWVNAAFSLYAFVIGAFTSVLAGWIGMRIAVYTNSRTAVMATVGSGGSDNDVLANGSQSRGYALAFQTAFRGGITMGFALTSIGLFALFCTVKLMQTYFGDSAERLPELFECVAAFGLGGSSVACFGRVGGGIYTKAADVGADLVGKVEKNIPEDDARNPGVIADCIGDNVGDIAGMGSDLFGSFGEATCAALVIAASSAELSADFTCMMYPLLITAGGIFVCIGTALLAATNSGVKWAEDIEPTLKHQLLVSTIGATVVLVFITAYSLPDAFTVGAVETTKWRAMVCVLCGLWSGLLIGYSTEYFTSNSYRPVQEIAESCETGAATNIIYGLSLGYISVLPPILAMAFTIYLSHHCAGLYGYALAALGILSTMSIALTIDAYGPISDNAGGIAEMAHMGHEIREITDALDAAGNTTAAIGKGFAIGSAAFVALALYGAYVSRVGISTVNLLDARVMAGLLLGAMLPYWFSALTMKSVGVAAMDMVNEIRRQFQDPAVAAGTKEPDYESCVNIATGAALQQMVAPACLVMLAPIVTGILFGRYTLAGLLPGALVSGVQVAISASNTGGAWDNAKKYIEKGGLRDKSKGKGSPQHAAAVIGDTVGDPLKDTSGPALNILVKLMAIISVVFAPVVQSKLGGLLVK
Briefly: Ratio of ED50 against KB cell line to that of IC50 of TbVSP1. It counts as functional, cell-based.

`O=P(O)(O)C(O)(Cc1cccc2ccccc12)P(=O)(O)O`: in the test with KB, the EC50 was found to be 847 µM. In test [1], the TI was 75.
Taken in the same sequence, the figures for `O=P(O)(O)C(Nc1cccc(-c2ccccc2)c1)P(=O)(O)O` were 749 µM and 174.
Take `O=P(O)(O)C(Nc1ccc(-c2ccccc2)cc1)P(=O)(O)O`: the EC50 in the test with KB is 495 µM. Besides, the TI in test [1] is 1.4.
Taken in the same sequence, the figures for `CCCCOc1ccc(NC(P(=O)(O)O)P(=O)(O)O)cc1` were 210 µM and 5.3.
The corresponding values for `CCc1cccc(NC(P(=O)(O)O)P(=O)(O)O)n1` are 847 µM and 15.
With `CCCCCCCCC(O)(P(=O)(O)O)P(=O)(O)O`, the EC50 with KB is 64 µM. Also, the TI in test [1] is 1.3.
The corresponding values for `CC(C)c1cccc(C(C)C)c1NC(P(=O)(O)O)P(=O)(O)O` are 713 µM and 28.
Taken in the same sequence, the figures for `O=P(O)(O)C(O)(Cc1cccnc1)P(=O)(O)O` [RISEDRONIC ACID] were 255 µM and 0.4.
In the case of `O=P(O)(O)C(O)(Cc1cccc(Cl)c1)P(=O)(O)O`, the EC50 with KB is 283 µM. The TI in test [1] was found to be 38.
Taken in the same sequence, the figures for `CCCCCCCCCNC(P(=O)(O)O)P(=O)(O)O` [(NONYLAMINO)METHYLENEDIPHOSPHONIC ACID] were 919 µM and 16.
The corresponding values for `Cc1cccc(CC(O)(P(=O)(O)O)P(=O)(O)O)c1` are 0.9 µM and 0.04.
On to `CCCCC(O)(P(=O)(O)O)P(=O)(O)O`, for which the EC50 in the test on KB turned out to be 1040 µM. The TI in test [1] came out at 82.
Taken in the same sequence, the figures for `CN(CCOc1ccccc1)CCC(O)(P(=O)(O)O)P(=O)(O)O` were 312 µM and 1.
Taken in the same sequence, the figures for `CCCCCC(O)(P(=O)(O)O)P(=O)(O)O` were 107 µM and 10.
The corresponding values for `Nc1ccc(CC(O)(P(=O)(O)O)P(=O)(O)O)cc1` are 218 µM and 4.
As for `O=P(O)(O)C(Nc1cccc(Cc2ccccc2)c1)P(=O)(O)O`, the EC50 with KB turned out to be 645 µM. Besides, the TI in test [1] worked out at 14.
The corresponding values for `CCCNC(P(=O)(O)O)P(=O)(O)O` [(PROPYLAMINO)METHYLENEDIPHOSPHONIC ACID] are 499 µM and 10.
The corresponding values for `O=P(O)(O)C(Nc1ccc2c(c1)CCC2)P(=O)(O)O` are 976 µM and 101.
The corresponding values for `CCn1c2ccccc2c2ccc(NC(P(=O)(O)O)P(=O)(O)O)cc21` are 710 µM and 19.
With `O=P(O)(O)C(O)(Cn1ccnc1)P(=O)(O)O` [ZOLEDRONIC ACID], the EC50 in the test on KB was determined as 63.7 µM. Moreover, the TI in test [1] was 0.3.
Taken in the same sequence, the figures for `O=P(O)(O)C(O)(Cc1cccc(C(F)(F)F)c1)P(=O)(O)O` were 109 µM and 6.3.
Taken in the same sequence, the figures for `CCCCCCCCCCCCCCCC(O)(P(=O)(O)O)P(=O)(O)O` were 729 µM and 2.1.
Regarding `CCc1ccc(NC(P(=O)(O)O)P(=O)(O)O)cc1`, the EC50 in the test on KB was 257 µM. The TI in test [1] came to 21.
As to `CCCCCCCCCC(O)(P(=O)(O)O)P(=O)(O)O`, in the test with KB, the EC50 is 892 µM. The TI in test [1] was 2.5.
Taken in the same sequence, the figures for `CC(C)(C)c1cc(NC(P(=O)(O)O)P(=O)(O)O)cc(C(C)(C)C)c1` were 634 µM and 39.
On to `CCCCNC(P(=O)(O)O)P(=O)(O)O` [(BUTYLAMINO)METHYLENEDIPHOSPHONIC ACID], for which the EC50 with KB came out at 212 µM. Moreover, the TI in test [1] was 4.9.
Taken in the same sequence, the figures for `O=P(O)(O)C(O)(Cc1cccc(Br)c1)P(=O)(O)O` were 228 µM and 25.
The corresponding values for `CC(C)c1cccc(NC(P(=O)(O)O)P(=O)(O)O)c1` are 771 µM and 79.
For the compound `O=P(O)(O)C(Nc1ccc(Cl)cc1Cl)P(=O)(O)O` [2,4-DICHLOROPHENYLAMINOMETHYLENEBISPHOSPHONIC ACID], in the test on KB, the EC50 is 728 µM. Besides, the TI in test [1] is 169.
Taken in the same sequence, the figures for `O=[N+]([O-])c1cccc(CC(O)(P(=O)(O)O)P(=O)(O)O)c1` were 727 µM and 44.
Taken in the same sequence, the figures for `O=P(O)(O)C(O)(Cc1cccc(F)c1)P(=O)(O)O` were 225 µM and 20.
The corresponding values for `O=P(O)(O)C(NC1CCCCCC1)P(=O)(O)O` [INCADRONIC ACID] are 166 µM and 3.7.
As for `CCc1cccc(NC(P(=O)(O)O)P(=O)(O)O)c1`, the EC50 with KB is 1020 µM. Also, the TI in test [1] stood at 423.
The corresponding values for `O=P(O)(O)C(CNc1ccccn1)P(=O)(O)O` are 144 µM and 0.4.
